From US20240228459A1 (Boundless Bio, Inc., priority 2022, published 2024) come the findings set out here.

One assay has as its target Wee1 (Homo sapiens, UniProt P30291). The experiment in a line: Wee1 pCDK1 activity (known assay). Format: cell-based. On the procedure:
(§1) The Wee1 pCDK1 and PLK1 activities were determined using known assays.

The target of the next assay is PLK1 (Homo sapiens, UniProt P53350). The experiment in a line: PLK1 activity (known assay). It is filed as biochemical. The protocol: as §1
Chain of PLK1 (P53350 whole entry, species assumed): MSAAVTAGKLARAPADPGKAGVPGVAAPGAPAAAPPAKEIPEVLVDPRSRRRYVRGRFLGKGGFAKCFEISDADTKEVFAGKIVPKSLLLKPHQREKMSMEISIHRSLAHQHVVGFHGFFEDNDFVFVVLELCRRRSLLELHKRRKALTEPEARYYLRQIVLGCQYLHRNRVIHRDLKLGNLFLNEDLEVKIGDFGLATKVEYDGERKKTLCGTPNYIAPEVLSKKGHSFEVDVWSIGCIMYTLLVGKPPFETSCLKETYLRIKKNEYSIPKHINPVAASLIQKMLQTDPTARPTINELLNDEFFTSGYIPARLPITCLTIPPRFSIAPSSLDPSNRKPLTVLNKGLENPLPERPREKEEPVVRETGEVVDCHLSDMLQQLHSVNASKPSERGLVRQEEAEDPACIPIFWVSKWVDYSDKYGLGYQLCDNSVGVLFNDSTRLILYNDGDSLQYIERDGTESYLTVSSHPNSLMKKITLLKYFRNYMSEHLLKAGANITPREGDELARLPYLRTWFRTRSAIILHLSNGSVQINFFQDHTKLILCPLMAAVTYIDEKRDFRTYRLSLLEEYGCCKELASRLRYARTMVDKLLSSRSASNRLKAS

Chain of Wee1 (P30291 whole entry, species assumed): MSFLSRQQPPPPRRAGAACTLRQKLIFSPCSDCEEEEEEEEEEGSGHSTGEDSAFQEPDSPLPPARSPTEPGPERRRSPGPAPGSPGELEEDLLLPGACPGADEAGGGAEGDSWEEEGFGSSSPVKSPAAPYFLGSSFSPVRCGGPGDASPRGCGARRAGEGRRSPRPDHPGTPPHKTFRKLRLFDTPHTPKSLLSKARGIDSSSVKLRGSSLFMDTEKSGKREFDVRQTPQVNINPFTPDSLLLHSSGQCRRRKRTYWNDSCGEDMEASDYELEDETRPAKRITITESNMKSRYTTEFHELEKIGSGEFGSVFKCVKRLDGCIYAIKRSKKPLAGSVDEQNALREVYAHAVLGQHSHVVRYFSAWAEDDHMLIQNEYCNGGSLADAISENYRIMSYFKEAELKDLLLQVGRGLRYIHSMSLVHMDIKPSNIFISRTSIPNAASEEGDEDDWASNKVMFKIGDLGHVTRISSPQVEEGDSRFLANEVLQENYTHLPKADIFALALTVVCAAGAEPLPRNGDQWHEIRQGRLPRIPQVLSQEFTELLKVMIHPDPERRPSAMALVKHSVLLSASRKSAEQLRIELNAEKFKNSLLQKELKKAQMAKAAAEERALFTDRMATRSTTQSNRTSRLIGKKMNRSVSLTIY

For `CCC1(O)CCc2ccc(Nc3nc(Nc4ccc5c(c4)CN(C)CC5(C)C)ncc3C#N)nc21` (stereo not drawn) [Example 48, 4-[(7-ethyl-7-hydroxy-5,6-dihydrocyclopenta[b]pyridin-2-yl)amino]-2-[(2,4,4-trimethyl-1,3-dihydroisoquinolin-7-yl)amino]pyrimidine-5-carbonitrile], the values for the IC50 at Wee1 and at PLK1 were 250 to 500 nM and greater than 1000 nM, respectively.

Turning to `CCC1CN(C)CCN1c1ccc(Nc2ncc(C#N)c(Nc3cccc(N4CCCC4=O)n3)n2)cc1` (stereo not drawn) [Example 68, 2-[4-(2-ethyl-4-methyl-piperazin-1-yl)anilino]-4-[[6-(2-oxopyrrolidin-1-yl)-2-pyridyl]amino]pyrimidine-5-carbonitrile], the IC50 against Wee1 was 100 to 250 nM; on PLK1, greater than 1000 nM.

Consider `CN1CCc2ccc(Nc3ncc(C#N)c(Nc4cccc(N5CCCC5=O)n4)n3)cc2C1` [Example 74, 2-[(2-methyl-3,4-dihydro-1H-isoquinolin-7-yl)amino]-4-[[6-(2-oxopyrrolidin-1-yl)-2-pyridyl]amino]pyrimidine-5-carbonitrile], for which the IC50 at Wee1 is 100 to 250 nM; against PLK1, greater than 1000 nM.

In the case of `CN1CCC(c2ccc(Nc3ncc(C#N)c(Nc4cccc(N5CCCC5=O)n4)n3)cc2)CC1=O` (stereo not drawn) [Example 67, 2-[4-(1-methyl-2-oxo-4-piperidyl)anilino]-4-[[6-(2-oxopyrrolidin-1-yl)-2-pyridyl]amino]pyrimidine-5-carbonitrile], the concentration for half-maximal inhibition (IC50) is 500 to 1000 nM against Wee1 and greater than 1000 nM against PLK1.

Consider `CCC1(O)CCc2ccc(Nc3nc(Nc4ccc5c(c4)CCNC5(C)C)ncc3C#N)nc21` (stereo not drawn) [Example 25, 2-[(1,1-dimethyl-3,4-dihydro-2H-isoquinolin-6-yl)amino]-4-[(7-ethyl-7-hydroxy-5,6-dihydrocyclopenta[b]pyridin-2-yl)amino]pyrimidine-5-carbonitrile], for which the results for the half-inhibitory concentration (IC50) at Wee1 and on PLK1 were 500 to 1000 nM and greater than 1000 nM, respectively.

As to `C[C@H]1CN(C)CCN1c1ccc(Nc2ncc(C#N)c(Nc3ccc4c(n3)C(C)(O)CC4)n2)cc1` (mixture of isomers) [Example 60, 4-[(7-hydroxy-7-methyl-5,6-dihydrocyclopenta[b]pyridin-2-yl)amino]-2-[4-[rac-(2S)-2,4-dimethylpiperazin-1-yl]anilino]pyrimidine-5-carbonitrile], the IC50 against Wee1 and against PLK1 was 500 to 1000 nM throughout.

As for `CCC1(O)CCc2ccc(Nc3nc(Nc4ccc5c(c4)CNCC5(C)C)ncc3C#N)nc21` (stereo not drawn) [Example 30, 2-[(4,4-dimethyl-2,3-dihydro-1H-isoquinolin-7-yl)amino]-4-[(7-ethyl-7-hydroxy-5,6-dihydrocyclopenta[b]pyridin-2-yl)amino]pyrimidine-5-carbonitrile], the IC50 at Wee1 is 250 to 500 nM; against PLK1, greater than 1000 nM.

In the case of `CCC1(O)CCc2ccc(Nc3nc(Nc4ccc(N5CCN(C)C6(CC6)C5)cc4)ncc3C#N)nc21` (stereo not drawn) [Example 33, 4-[(7-ethyl-7-hydroxy-5,6-dihydrocyclopenta[b]pyridin-2-yl)amino]-2-[4-(4-methyl-4,7-diazaspiro[2.5]octan-7-yl)anilino]pyrimidine-5-carbonitrile], the figures for the IC50 on Wee1 and against PLK1 were greater than 1000 nM and no more than 100 nM, respectively.

In the case of `CCC1(O)CCc2ccc(Nc3nc(Nc4ccc(N5CCN(C(C)=O)C6(CC6)C5)cc4)ncc3C#N)nc21` (stereo not drawn) [Example 54, 2-[4-(4-acetyl-4,7-diazaspiro[2.5]octan-7-yl)anilino]-4-[(7-ethyl-7-hydroxy-5,6-dihydrocyclopenta[b]pyridin-2-yl)amino]pyrimidine-5-carbonitrile], the IC50 on Wee1 was 250 to 500 nM; against PLK1, no more than 100 nM.
